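Tested at 5 concentrations; 48 h exposure; 96-well plates; endpoints linearly interpolated, else capped at highest concentration. The concentration for 50% growth inhibition is given as GI50.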 Activity calls are given as the source filed them. No stated cut-off is given here; in the data, active = GI50 up to about 1.1 µM and inactive = higher.
What was measured:
Assay in all cases: NCI-60 cell line screen, 48 h
SNB-19 = tested on: SNB-19
SK-OV-3 = tested on: SK-OV-3
MDA-MB-435 = tested on: MDA-MB-435
KM12 = tested on: KM12
HCT-116 = tested on: HCT-116
TK-10 = tested on: TK-10
IGROV-1 = tested on: IGROV-1
NCI-H460 = tested on: NCI-H460
COLO 205 = tested on: COLO 205
NCI/ADR-RES = tested on: NCI/ADR-RES
NCI-H23 = tested on: NCI-H23
RPMI-8226 = tested on: RPMI-8226
CAKI-1 = tested on: CAKI-1
SF-539 = tested on: SF-539
SW-620 = tested on: SW-620
SN12C = tested on: SN12C
HL-60 = tested on: HL-60
NCI-H226 = tested on: NCI-H226
SF-295 = tested on: SF-295
SNB-75 = tested on: SNB-75

Structure (SMILES)	GI50 (SNB-19)	GI50 (SK-OV-3)	GI50 (MDA-MB-435)	GI50 (KM12)	GI50 (HCT-116)	GI50 (TK-10)	GI50 (IGROV-1)	GI50 (NCI-H460)	GI50 (COLO 205)	GI50 (NCI/ADR-RES)	GI50 (NCI-H23)	GI50 (RPMI-8226)	GI50 (CAKI-1)	GI50 (SF-539)	GI50 (SW-620)	GI50 (SN12C)	GI50 (HL-60)	GI50 (NCI-H226)	GI50 (SF-295)	GI50 (SNB-75)
O=C1OCC(c2ccc(Cl)cc2)=C1Cl	> 100 µM (inactive)	> 100 µM (inactive)	33.2 µM (inactive)	15.4 µM (inactive)	13.9 µM (inactive)	28.3 µM (inactive)	< 0.01 µM (active)	17.8 µM (inactive)	24.4 µM (inactive)	26.9 µM (inactive)	19.1 µM (inactive)	23.8 µM (inactive)	30.5 µM (inactive)	38 µM (inactive)	25.4 µM (inactive)	26.7 µM (inactive)	19.8 µM (inactive)	55.8 µM (inactive)	39.9 µM (inactive)	> 100 µM (inactive)
COc1ccc(/C=C\c2cc(OC)c(OC)c(OC)c2)cc1OC(=O)CC(N)C(=O)O (stereo not given)	0.0118 µM (active)	0.00423 µM (active)	0.000146 µM (active)	0.00365 µM (active)	0.00103 µM (active)	0.519 µM (active)	0.0124 µM (active)	0.00219 µM (active)	0.635 µM (active)	0.000224 µM (active)	0.0021 µM (active)	0.00148 µM (active)	0.307 µM (active)	0.00222 µM (active)	0.00135 µM (active)	0.00521 µM (active)	0.000899 µM (active)	0.054 µM (active)	0.0021 µM (active)	0.000459 µM (active)
COC(=O)C1=C(OC(=O)/C(=C/c2ccccc2)c2ccccc2)C(C(=O)OC)[C@@]2(O)[C@@H](C(=O)OC)[C@H](C)C[C@@H]1[C@@H]2C(=O)OC (stereo not given in full)	> 100 µM (inactive)	> 100 µM (inactive)	> 100 µM (inactive)	> 100 µM (inactive)	> 100 µM (inactive)	> 100 µM (inactive)	> 100 µM (inactive)	> 100 µM (inactive)	> 100 µM (inactive)	> 100 µM (inactive)	> 100 µM (inactive)	2.67 µM (inactive)	> 100 µM (inactive)	> 100 µM (inactive)	> 100 µM (inactive)	> 100 µM (inactive)	> 100 µM (inactive)	> 100 µM (inactive)	69.7 µM (inactive)	> 100 µM (inactive)
C[N+]1([O-])C2CCC1CC(OC(=O)C(CO)c1ccccc1)C2 (stereo not given)	> 100 µM (inactive)	> 100 µM (inactive)	> 100 µM (inactive)	> 100 µM (inactive)	> 100 µM (inactive)	> 100 µM (inactive)	> 100 µM (inactive)	> 100 µM (inactive)	> 100 µM (inactive)	> 33.4 µM (inactive)	> 33.8 µM (inactive)	> 100 µM (inactive)	> 100 µM (inactive)	> 100 µM (inactive)	> 100 µM (inactive)	> 81.7 µM (inactive)	> 100 µM (inactive)	> 100 µM (inactive)	> 100 µM (inactive)	> 100 µM (inactive)
COc1nc2c(c(=O)n1C)NC(C(O)C(O)CO)C=N2 (stereo not given)	> 10 µM (inactive)	> 10 µM (inactive)	> 10 µM (inactive)	> 10 µM (inactive)	> 10 µM (inactive)	> 10 µM (inactive)	> 10 µM (inactive)	> 10 µM (inactive)	> 10 µM (inactive)	> 10 µM (inactive)	> 10 µM (inactive)	> 10 µM (inactive)	> 10 µM (inactive)	> 10 µM (inactive)	> 10 µM (inactive)	> 10 µM (inactive)	> 10 µM (inactive)	> 10 µM (inactive)	> 10 µM (inactive)	> 10 µM (inactive)
CC(C)(C)OC(=O)C1CC[C@@H](CC(=O)Oc2ccc([N+](=O)[O-])cc2)N1 (stereo not given in full)	> 100 µM (inactive)	> 100 µM (inactive)	> 100 µM (inactive)	> 100 µM (inactive)	> 100 µM (inactive)	> 100 µM (inactive)	> 100 µM (inactive)	> 100 µM (inactive)	> 100 µM (inactive)	> 100 µM (inactive)	> 100 µM (inactive)	> 100 µM (inactive)	> 100 µM (inactive)	> 100 µM (inactive)	> 100 µM (inactive)	> 100 µM (inactive)	> 100 µM (inactive)	> 100 µM (inactive)	> 100 µM (inactive)	> 100 µM (inactive)
COc1cccc2c1C(=O)c1c(O)c3c(c(O)c1C2=O)C[C@@](O)(C(=O)CO)C[C@@H]3OC1CC2C(OCN3CN2COC2C(C)OC(O[C@H]4C[C@](O)(C(=O)CO)Cc5c(O)c6c(c(O)c54)C(=O)c4c(OC)cccc4C6=O)CC23)C(C)O1 (stereo not given in full)	0.0272 µM (active)	0.0681 µM (active)	0.0891 µM (active)	0.0635 µM (active)	0.0289 µM (active)	0.0412 µM (active)	0.0266 µM (active)	0.00433 µM (active)	0.0614 µM (active)	0.251 µM (active)	0.027 µM (active)	0.0184 µM (active)	0.0927 µM (active)	0.0377 µM (active)	0.0187 µM (active)	0.0231 µM (active)	0.0258 µM (active)	0.0665 µM (active)	0.0498 µM (active)	0.0151 µM (active)
O=c1c2cccnc2[nH]c2ccc3scnc3c12	> 10 µM (inactive)	> 10 µM (inactive)	9.82 µM (inactive)	6.7 µM (inactive)	3.3 µM (inactive)	4.86 µM (inactive)	4.81 µM (inactive)	7.01 µM (inactive)	5.12 µM (inactive)	8.91 µM (inactive)	> 10 µM (inactive)	> 10 µM (inactive)	> 10 µM (inactive)	6.95 µM (inactive)	> 10 µM (inactive)	6.24 µM (inactive)	4.86 µM (inactive)	5.97 µM (inactive)	> 10 µM (inactive)	6.31 µM (inactive)

Reference: ChEMBL document CHEMBL1201862, “PubChem BioAssay data set” (2004)
